Consider six molecules from ChEMBL document CHEMBL3046798 (J Agric Food Chem, 2010).

Each structure is given as a SMILES string. Values after ≈ are worked out from the molar mass of the structure shown.

Data set [1] is described as follows: Drug level in Cicer arietinum (chickpea) green seeds measured 100 days post dose following field application at 2 kg of active ingredient/hectare.
Data set [2] can be described thus: Cmax in Solanum lycopersicum (tomato) shoots measured 30 days post dose following field application at 1 and 2 kg of active ingredient/hectare. The format is ADME, Shoot. As to conditions: other: field application.
Data set [3] in a line: Drug level in Cicer arietinum (chickpea) green seeds measured 90 days post dose following field application at 2 kg of active ingredient/hectare.
In data set [4] the test system is Meloidogyne incognita. The data set can be described thus: Nematicidal activity against root-knot nematode Meloidogyne incognita J2 (root-knot nematode) infested chickpea plants plots assessed as reduction in nematode population measured 110 days post dose following field application at 1 to 2 kg of active ingredient/hectare. In kind it is functional. Details: scale not given: the % may be the effect or the level left.

Data set [5] deals with Rotylenchulus reniformis. Briefly: Nematicidal activity against Rotylenchulus reniformis (reniform nematode) infested in tomato plants plots assessed as reduction in nematode population measured 55 days post dose following field application at 1 to 2 kg of active ingredient/hectare. In kind it is functional. Also on record: scale not given: the % may be the effect or the level left.

A short description of data set [6]: Toxicity in Rattus norvegicus (rat). Particulars: in vivo.
The nature of data set [7]: Drug level in Solanum lycopersicum (tomato) green seeds measured 120 days post dose following field application at 2 kg of active ingredient/hectare.
For data set [8], the system named is Rotylenchulus reniformis. Briefly: Nematicidal activity against Rotylenchulus reniformis (reniform nematode) infested chickpea plants plots assessed as reduction in nematode population measured 110 days post dose following field application at 1 to 2 kg of active ingredient/hectare. In kind it is functional. Also on record: scale not given: the % may be the effect or the level left.

A short description of data set [9]: Cmax in Cicer arietinum (chickpea) shoots measured 15 days post dose following field application at 1 and 2 kg of active ingredient/hectare. In kind it is ADME, Shoot. As to conditions: other: field application.
A short description of data set [10]: Drug absorption in Solanum lycopersicum (tomato) roots measured 30 days post dose following field application at 1 and 2 kg of active ingredient/hectare.
Data set [11] can be described thus: Drug level in Cicer arietinum (chickpea) green seeds measured 90 days post dose following field application at 1 kg of active ingredient/hectare.
Data set [12] is described as follows: Drug level in Solanum lycopersicum (tomato) green seeds measured 90 days post dose following field application at 1 kg of active ingredient/hectare.
Data set [13] can be described thus: Drug level in Solanum lycopersicum (tomato) green seeds measured 120 days post dose following field application at 1 kg of active ingredient/hectare.
In data set [14] the test system is Meloidogyne incognita. The data set can be described thus: Nematicidal activity against root-knot nematode Meloidogyne incognita J2 (root-knot nematode) infested chickpea plants plots assessed as reduction in nematode population measured 55 days post dose following field application at 1 to 2 kg of active ingredient/hectare. In kind it is functional. Also on record: scale not given: the % may be the effect or the level left.

For data set [15], the system named is Rotylenchulus reniformis. Briefly: Nematicidal activity against Rotylenchulus reniformis (reniform nematode) infested chickpea plants plots assessed as reduction in nematode population measured 55 days post dose following field application at 1 to 2 kg of active ingredient/hectare. Also on record: scale not given: the % may be the effect or the level left. In kind it is functional.

For data set [16], the system named is Meloidogyne incognita. Briefly: Nematicidal activity against root-knot nematode Meloidogyne incognita J2 (root-knot nematode) infested tomato plants plots assessed as reduction in nematode population measured 55 days post dose following field application at 1 to 2 kg of active ingredient/hectare. The format is functional. Details: scale not given: the % may be the effect or the level left.

Data set [17] is described as follows: Drug level in Solanum lycopersicum (tomato) green seeds measured 100 days post dose following field application at 2 kg of active ingredient/hectare.
Data set [18] concerns Root. Briefly: Drug absorption in Solanum lycopersicum (tomato) roots assessed as mean drug level measured post dose following field application at 1 and 2 kg of active ingredient/hectare.
Data set [19] has as its system Meloidogyne incognita. Briefly: Nematicidal activity against root-knot nematode Meloidogyne incognita J2 (root-knot nematode) infested tomato plants plots assessed as reduction in nematode population measured 110 days post dose following field application at 1 to 2 kg of active ingredient/hectare. In kind it is functional. Also on record: scale not given: the % may be the effect or the level left.

A short description of data set [20]: Drug level in Cicer arietinum (chickpea) green seeds measured 100 days post dose following field application at 1 kg of active ingredient/hectare.
Data set [21] deals with Rotylenchulus reniformis. The data set can be described thus: Nematicidal activity against Rotylenchulus reniformis (reniform nematode) infested tomato plants plots assessed as reduction in nematode population measured 110 days post dose following field application at 1 to 2 kg of active ingredient/hectare. In kind it is functional. Also on record: scale not given: the % may be the effect or the level left.

For data set [22], the system named is Root. The data set can be described thus: Drug translocation in Solanum lycopersicum (tomato) roots assessed as mean drug level measured post dose following field application at 1 and 2 kg of active ingredient/hectare.
The nature of data set [23]: Drug level in Solanum lycopersicum (tomato) green seeds measured 90 days post dose following field application at 2 kg of active ingredient/hectare.
Data set [24] is described as follows: Drug level in Solanum lycopersicum (tomato) green seeds measured 100 days post dose following field application at 1 kg of active ingredient/hectare.
The nature of data set [25]: Drug level in Cicer arietinum (chickpea) roots measured 15 days post dose following field application at 1 and 2 kg of active ingredient/hectare. The format is ADME, Root. As to conditions: other: field application, read-out: Drug uptake.
Data set [26] can be described thus: in vivo. Particulars: solanum lycopersicum.
Data set [27] can be described thus: Cmax in Cicer arietinum (chickpea) shoots measured 45 days post dose following field application at 1 and 2 kg of active ingredient/hectare. In kind it is ADME, Shoot. Particulars: other: field application.
The nature of data set [28]: Drug level in Cicer arietinum (chickpea) green seeds measured 120 days post dose following field application at 2 kg of active ingredient/hectare.
Data set [29] can be described thus: Drug level in Cicer arietinum (chickpea) green seeds measured 120 days post dose following field application at 1 kg of active ingredient/hectare.
Data set [30] in a line: Drug level in Solanum lycopersicum (tomato) roots measured 15 days post dose following field application at 1 and 2 kg of active ingredient/hectare. As to conditions: other: field application, read-out: Drug uptake. The format is ADME, Root.
Data set [31] in a line: Drug absorption in Cicer arietinum (chickpea) roots measured 45 days post dose following field application at 1 and 2 kg of active ingredient/hectare. As to conditions: Root.
Data set [32] in a line: in vivo. Particulars: cicer arietinum, Shoot.

As a reminder, the Cmax is the maximum level reached in the sampled fluid or tissue. Broadly, the solubility is how much of the substance goes into solution per volume. What is called LD50 is the dose at which mortality reaches 50%. Regarding `CCOP(=O)(SC(C)CC)SC(C)CC` (stereo unspecified) [CADUSAFOS], the concentration at 2400 h in data set [1] (green seeds) was determined as 5 ng/g; in data set [17], 10 ng/g; in [20] (green seeds), 3 ng/g; in data set [24] it was 6 ng/g. The Cmax in data set [2] is 440 ng/g; in [9] it was 340 ng/g. The concentration at 2160 h amounted to 16 ng/g in data set [3] (green seeds), 9 ng/g in [11] (green seeds), 21 ng/g in data set [12] (green seeds) and 40 ng/g in data set [23] (green seeds). The Activity in the data set with Meloidogyne incognita [4] turned out to be 79%; in the data set on Rotylenchulus reniformis [5] it was 39%; in the data set with Rotylenchulus reniformis [8], 45%; with Meloidogyne incognita [14], 66%; in the data set with Rotylenchulus reniformis [15], 49%; in the data set with Meloidogyne incognita [16] it was 57%. The Activity came out at 60% in the data set with Meloidogyne incognita [19] and 83% with Rotylenchulus reniformis [21]. Besides, the solubility in the data set “physchem” (buffer) is 248 µg/mL (≈ 917 µM). The LD50 in [6] stood at 37.1 mg/kg. The concentration at 2880 h is 3 ng/g in data set [7] and 2 ng/g in [13]. In [10] (roots, other: field application), this molecule showed a concentration at 720 h of 3230 ng/g. In the data set on Root [18], the Drug absorption worked out at 2.18 µg/g. Further, the Drug transport in the data set on Root [22] worked out at 0.25 µg/g.

Turning to `CNC(=O)Oc1cccc2c1OC(C)(C)C2` [CARBOFURAN], in the data set “physchem” (buffer), the concentration in solution (solubility) came to 700 µg/mL (≈ 3160 µM). Also, the LD50 in data set [6] was 8 mg/kg.

Take `CCCCN(CCCC)SN(C)C(=O)Oc1cccc2c1OC(C)(C)C2` [CARBOSULFAN]: the concentration at 360 h in data set [25] was found to be 530 ng/g. This molecule also had a Cmax at 1080 h in “in vivo [26]” (shoots, other: field application) of 31600 ng/g. The Activity came to 15% in the data set on Meloidogyne incognita [4]; 23% in the data set with Rotylenchulus reniformis [5]; 23% in the data set on Rotylenchulus reniformis [8]; 33% in the data set with Meloidogyne incognita [14]; 37% in the data set with Rotylenchulus reniformis [15]; 52% in the data set with Meloidogyne incognita [16]. Besides, the Activity in the data set on Meloidogyne incognita [19] is given as 45%; with Rotylenchulus reniformis [21], 59%. Besides, the LD50 in [6] is 209 mg/kg. This molecule also returned a Cmax in [27] of 24800 ng/g. In the data set on Root [18], the Drug absorption came to 0.36 µg/g. For the same molecule, the Drug transport in the data set on Root [22] amounted to 9.52 µg/g.

Regarding `CCOP(=O)(NC(C)C)Oc1ccc(SC)c(C)c1` (stereo unspecified) [PHENAMIPHOS], the 50% lethal dose (LD50) in data set [6] was 16 mg/kg.

As to `CCOP(=S)(OCC)SCSCC` [PHORATE], the concentration at 360 h in data set [25] was determined as 2310 ng/g; in data set [30], 1690 ng/g. Moreover, the concentration at 2400 h came to 19 ng/g in data set [1] (green seeds), 14 ng/g in data set [17], 8 ng/g in data set [20] (green seeds) and 10 ng/g in [24]. The concentration at 2160 h in data set [3] (green seeds) turned out to be 56 ng/g; in [11] (green seeds) it was 20 ng/g; in data set [12] (green seeds), 14 ng/g; in data set [23] (green seeds), 22 ng/g. For the same molecule, the Activity with Meloidogyne incognita [4] was 1%; in the data set on Rotylenchulus reniformis [5], 36%; in the data set on Rotylenchulus reniformis [8], 0.9%; with Meloidogyne incognita [14], 44%; with Rotylenchulus reniformis [15], 28%; with Meloidogyne incognita [16], 45%. The Activity in the data set with Meloidogyne incognita [19] turned out to be 17%; in the data set with Rotylenchulus reniformis [21] it was 45%. Moreover, the solubility in the data set “physchem” (water) worked out at 50 µg/mL (≈ 192 µM). In data set [6], this molecule came in with an LD50 of 3.2 mg/kg. In addition, the concentration at 2880 h is 6 ng/g in [28], 4 ng/g in data set [7], 3 ng/g in [13] and 3 ng/g in data set [29]. In data set [27], this molecule came in with a Cmax of 680 ng/g. The Drug absorption in the data set on Root [18] came to 1.45 µg/g. The Drug transport in the data set on Root [22] was 0.41 µg/g.

For `CCOP(=S)(OCC)Oc1ncn(-c2ccccc2)n1` [TRIAZOPHOS], the values for the concentration at 2400 h in data set [1] and in [20] were 7 ng/g and 4 ng/g, respectively. The concentration at 2160 h in [3] was found to be 18 ng/g; in [11] it was 11 ng/g; in data set [12], 2 ng/g; in data set [23], 4 ng/g. Besides, the Cmax at 1080 h in “in vivo [26]” (Shoot) was determined as 630 ng/g. In [31], this molecule displayed a concentration at 1080 h of 1720 ng/g. The Activity with Meloidogyne incognita [4] came out at 44%; in the data set on Rotylenchulus reniformis [5], 30%; in the data set with Rotylenchulus reniformis [8], 30%; in the data set with Meloidogyne incognita [14], 63%; in the data set on Rotylenchulus reniformis [15] it was 38%; with Meloidogyne incognita [16], 55%. Moreover, the figures for the Activity with Meloidogyne incognita [19] and in the data set on Rotylenchulus reniformis [21] were 38% and 31%, respectively. The solubility in the data set “physchem” (buffer) was 30 µg/mL (≈ 95.7 µM). This molecule showed an LD50 in [6] of 68 mg/kg. Besides, the Cmax at 720 h in “in vivo [32]” amounted to 250 ng/g. In data set [10] (Root), the concentration at 720 h came to 7220 ng/g. Besides, the Drug absorption in the data set on Root [18] (Root) was determined as 2.77 µg/g. In addition, the Drug transport in the data set with Root [22] (Root) is 0.14 µg/g.
